{"source": "patent US9939427B2", "about": "“Method for evaluating the scent performance of perfumes or perfume mixtures” (Symrise AG, priority 2013, dated 2018)", "assay_type_in_all_cases": "cell-based", "key": {"OR52B4": {"molecular_target": "T1, OR52B4 (Homo sapiens, UniProt Q8NGK2)", "T1 construct": "specific primers, which amplify the complete open reading frame; expressed in transfected cells; host or cells: HEK293", "T1 sequence (Q8NGK2 1-314)": "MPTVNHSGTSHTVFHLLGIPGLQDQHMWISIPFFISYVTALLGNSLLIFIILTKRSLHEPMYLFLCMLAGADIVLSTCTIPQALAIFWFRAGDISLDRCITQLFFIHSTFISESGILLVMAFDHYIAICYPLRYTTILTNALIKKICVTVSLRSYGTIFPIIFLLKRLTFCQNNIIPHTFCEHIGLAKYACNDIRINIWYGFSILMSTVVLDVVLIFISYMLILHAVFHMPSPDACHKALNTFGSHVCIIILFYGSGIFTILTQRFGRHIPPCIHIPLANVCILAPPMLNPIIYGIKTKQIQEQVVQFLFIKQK", "experiment": "Ca-imaging of OR52B4-transfected HEK293 cells", "parameters": "key: ▪: 18 olfactory receptors responded to 32 odorants in related with specific anosmia", "conditions": "individual odorant 200 μM, significant response p<0.05", "protocol": "(§1) HEK293 cells were cultivated in Petri dishes (Ø35 mm) as previously described (Benbernou et al. 2007). We grow up HEK293 cells in culture medium containing standard DMEM with 10% heat-inactivated fetal bovine serum, 2 mM L-glutamine, 100 units/ml penicillin, and 100 units/ml streptomycin in a humidified atmosphere (37° C., 5% CO2). After 2-3 days, the transfection process was carried out, whereby the cell culture was 70-80% confluent. The calciumphosphate method was applied to transfect DNA plasmid transiently in HEK293 cells in case of Ca-imaging method.\n(§2) Calcium cations and phosphate anions created crystal precipitations coupled with DNA which could invade into the cells through endocytosis. Cells were transiently transfected with plasmid DNA which consists of pCI expression vector and PCR-amplified full-length cDNA of olfactory receptors candidates, and also Gα15, RTP1, Myr-Ric8A, HSC70, and m-Cherry as cofactors. The precipitation could be created after 15-20 min, with dropping the transfection solution on HEK293 cells. Before measuring by Ca-imaging cells were incubated 48-60 hours at 370 C, 5% CO2. Cationic liposome-mediated transfection method was applied to transfect DNA plasmid transiently in HANA3A cells in case of CRE-Luciferase and CRE-SEAP assays.\n(§3) Calcium imaging of the transfected HEK293 cells was done by using chambers determinate an inverted microscope (Olympus; IX70) using a 10× objective (CPIanFL N Olympus). Fluorescence emission was determined every 4 s by using a CCD camera (Charge Coupled Device, C9100 Hamamatsu). The capillary tube which was responsible to supply odorants was generated closely above the cells. The columns filled with odorants, DMSO and ATP. Odorants were manually monitored to drop each 4-5 s to transfected cells. Solutions with drop wise form spread on HEK293 cells in 35 mm dishes.\nIn experiments, Fura-2 Acetoxymethylester (Fura-2/AM) was applied. The non-polar Fura2/AM is fluorescent but not yet calcium-sensitive. Once diffuses into cell plasma, Fura-2/AM is hydrolyzed to Fura-2 which is calcium-sensitive and functions as Ca2+ chelator. Regardless of the presence of calcium, Fura-2 emits at the wavelength of 510 nm. […] According to this feature, the analysis of 340/380 nm excitation ratio for Fura-2 allows to quantify intracellular calcium levels. […]\n(§4) Ringer's solution was used for washing cells between measuring by two different odorants. Positive response was determined by the timing of the response, the strength of the response (more than twofold higher than the noise amplitude of the baseline), and the shape of the response curve (sharp rise in curve with gradual recovery). […]"}, "OR4E2": {"molecular_target": "T2, OR4E2 (Homo sapiens, UniProt Q8NGC2)", "T2 construct": "specific primers, which amplify the complete open reading frame; expressed in transfected cells; host or cells: HEK293", "T2 sequence (Q8NGC2 1-313)": "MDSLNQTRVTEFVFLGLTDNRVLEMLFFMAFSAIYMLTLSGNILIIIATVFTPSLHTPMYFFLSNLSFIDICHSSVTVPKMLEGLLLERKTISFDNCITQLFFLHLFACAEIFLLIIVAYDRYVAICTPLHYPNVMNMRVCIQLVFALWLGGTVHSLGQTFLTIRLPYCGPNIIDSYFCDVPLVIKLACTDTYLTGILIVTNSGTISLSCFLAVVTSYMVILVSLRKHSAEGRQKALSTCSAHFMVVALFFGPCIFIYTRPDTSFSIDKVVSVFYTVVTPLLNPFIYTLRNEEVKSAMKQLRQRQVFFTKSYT", "experiment": "Ca-imaging of OR4E2-transfected HEK293 cells", "parameters": "key: ▪: 18 olfactory receptors responded to 32 odorants in related with specific anosmia", "conditions": "individual odorant 200 μM, significant response p<0.05", "protocol": "as §1\nas §2, with “Cationic liposome-mediated transfection method was applied to transfect DNA plasmid transiently in HANA3A cells in case of CRE-Luciferase and CRE-SEAP assays.” left out\n(§5) Calcium imaging of the transfected HEK293 cells was done by using chambers determinate an inverted microscope (Olympus; IX70) using a 10× objective (CPIanFL N Olympus). Fluorescence emission was determined every 4 s by using a CCD camera (Charge Coupled Device, C9100 Hamamatsu). […] Odorants were manually monitored to drop each 4-5 s to transfected cells. […]\n(§6) In experiments, Fura-2 Acetoxymethylester (Fura-2/AM) was applied. […] According to this feature, the analysis of 340/380 nm excitation ratio for Fura-2 allows to quantify intracellular calcium levels. […]\nas §4"}, "OR4K2": {"molecular_target": "T3, OR4K2 (Homo sapiens, UniProt Q8NGD2)", "T3 construct": "specific primers, which amplify the complete open reading frame; expressed in transfected cells; host or cells: HEK293", "T3 sequence (Q8NGD2 1-314)": "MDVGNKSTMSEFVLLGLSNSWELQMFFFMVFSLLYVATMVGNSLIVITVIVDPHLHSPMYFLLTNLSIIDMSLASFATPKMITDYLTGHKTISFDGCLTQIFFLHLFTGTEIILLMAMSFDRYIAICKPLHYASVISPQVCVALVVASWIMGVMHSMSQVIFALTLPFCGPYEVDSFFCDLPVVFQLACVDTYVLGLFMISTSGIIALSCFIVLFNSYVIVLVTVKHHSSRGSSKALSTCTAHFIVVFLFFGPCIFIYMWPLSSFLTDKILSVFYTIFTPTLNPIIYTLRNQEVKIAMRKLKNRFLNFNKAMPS", "experiment": "Ca-imaging of OR4K2-transfected HEK293 cells", "parameters": "key to OR4K2 responded to odorant: ▪: 18 olfactory receptors responded to 32 odorants in related with specific anosmia", "conditions": "HEK293 cells, individual odorant 200 μM, significant response p<0.05", "protocol": "as §1, §2, §3\nIn experiments, Fura-2 Acetoxymethylester (Fura-2/AM) was applied. The non-polar Fura2/AM is fluorescent but not yet calcium-sensitive. Once diffuses into cell plasma, Fura-2/AM is hydrolyzed to Fura-2 which is calcium-sensitive and functions as Ca2+ chelator. Regardless of the presence of calcium, Fura-2 emits at the wavelength of 510 nm. Once Fura-2 binds to free intracellular Ca2+ in cell plasma, its ratio of excitation at wavelengths of 340 nm and 380 nm is changed and correlated to the amount of intracellular Ca2+. According to this feature, the analysis of 340/380 nm excitation ratio for Fura-2 allows to quantify intracellular calcium levels.\nIn preparation for Ca-imaging measurements, transfected HEK293 cells were added 3 it Fura2/AM (3 μM) and incubated 30-45 min at 370 C, 5% CO2. After this step, experiments were carried out in a dark condition (Fura-2 is light-sensitive). After the incubation, medium of cell culture was replaced with 2 ml Ringer's solution.\nOdorants were freshly prepared with DMSO as 1 M stocks solutions. Six mixtures (200 μM each chemical) were applied to cells sequentially (20 s each mixture/30 s Ringer). Those ORs tested with single odorants that had generated a response to odorant mixture group previously. Odorants were prepared in 100-200 μM concentration.\nas §4"}, "OR12D2": {"molecular_target": "T4, OR12D2 (Homo sapiens, UniProt P58182)", "T4 construct": "specific primers, which amplify the complete open reading frame; expressed in transfected cells; host or cells: HEK293", "T4 sequence (P58182 1-307)": "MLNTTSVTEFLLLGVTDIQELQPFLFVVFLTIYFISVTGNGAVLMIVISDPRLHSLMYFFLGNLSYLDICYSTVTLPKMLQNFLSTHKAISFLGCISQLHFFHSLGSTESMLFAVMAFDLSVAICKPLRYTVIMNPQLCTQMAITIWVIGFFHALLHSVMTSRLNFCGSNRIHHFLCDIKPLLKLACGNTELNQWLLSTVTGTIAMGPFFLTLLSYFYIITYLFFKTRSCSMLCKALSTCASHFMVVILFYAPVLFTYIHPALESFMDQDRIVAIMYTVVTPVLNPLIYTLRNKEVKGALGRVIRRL", "experiment": "Ca-imaging of OR12D2-transfected HEK293 cells", "parameters": "key: ▪: 18 olfactory receptors responded to 32 odorants in related with specific anosmia", "conditions": "individual odorant 200 μM, significant response p<0.05", "experimental": "In preparation for Ca-imaging measurements, transfected HEK293 cells were added 3 it Fura2/AM (3 μM) and incubated 30-45 min at 370 C, 5% CO2. After this step, experiments were carried out in a dark condition (Fura-2 is light-sensitive). […]"}, "OR4K5": {"molecular_target": "T5, OR4K5 (Homo sapiens, UniProt Q8NGD3)", "T5 construct": "specific primers, which amplify the complete open reading frame; expressed in transfected cells; host or cells: HEK293", "T5 sequence (Q8NGD3 1-323)": "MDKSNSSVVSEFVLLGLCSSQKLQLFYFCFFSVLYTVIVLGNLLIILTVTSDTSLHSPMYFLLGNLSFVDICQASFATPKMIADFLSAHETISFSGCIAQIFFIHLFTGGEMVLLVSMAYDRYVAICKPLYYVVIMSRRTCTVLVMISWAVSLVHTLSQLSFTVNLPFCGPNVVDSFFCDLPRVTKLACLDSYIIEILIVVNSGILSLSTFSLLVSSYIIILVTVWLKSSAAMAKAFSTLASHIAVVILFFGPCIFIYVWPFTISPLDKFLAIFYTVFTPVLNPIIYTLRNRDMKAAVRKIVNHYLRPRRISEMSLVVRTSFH", "experiment": "Ca-imaging of OR4K5-transfected HEK293 cells", "parameters": "key to OR4K5 responded to odorant: ▪: 18 olfactory receptors responded to 32 odorants in related with specific anosmia", "conditions": "HEK293 cells, individual odorant 200 μM, significant response p<0.05", "protocol": "as §1\nas §2, with “Cationic liposome-mediated transfection method was applied to transfect DNA plasmid transiently in HANA3A cells in case of CRE-Luciferase and CRE-SEAP assays.” left out\nas §5, §6, §4"}, "OR4P4": {"molecular_target": "T6, OR4P4 (Homo sapiens, UniProt Q8NGL7)", "T6 construct": "specific primers, which amplify the complete open reading frame; expressed in transfected cells; host or cells: HEK293", "T6 sequence (Q8NGL7 1-312)": "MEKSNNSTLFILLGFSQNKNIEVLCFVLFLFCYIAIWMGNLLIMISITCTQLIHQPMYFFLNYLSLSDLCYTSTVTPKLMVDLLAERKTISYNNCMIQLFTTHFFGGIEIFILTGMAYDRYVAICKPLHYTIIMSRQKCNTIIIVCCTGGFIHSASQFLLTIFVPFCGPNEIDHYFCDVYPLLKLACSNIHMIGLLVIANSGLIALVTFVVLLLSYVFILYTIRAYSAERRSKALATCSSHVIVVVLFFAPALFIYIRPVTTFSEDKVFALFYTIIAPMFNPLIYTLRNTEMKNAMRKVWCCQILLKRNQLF", "experiment": "Ca-imaging of OR4P4-transfected HEK293 cells", "parameters": "key to OR4P4 responded to odorant: ▪: 18 olfactory receptors responded to 32 odorants in related with specific anosmia", "conditions": "for OR4P4 responded to odorant: HEK293 cells, individual odorant 200 μM, significant response p<0.05", "protocol": "as §1\nas §2, with “Cationic liposome-mediated transfection method was applied to transfect DNA plasmid transiently in HANA3A cells in case of CRE-Luciferase and CRE-SEAP assays.” left out\nas §5, §6, §4"}}}
{"compound": "C=CC(=O)CCCCC", "note": "[1-Octan-3-One, 1-Octen-3-one]", "values": [{"measurement": "OR52B4 responded to odorant", "setting": "OR52B4", "value": "▪"}]}
{"compound": "COc1c(Cl)cc(Cl)cc1Cl", "note": "[2-4-6 trichoroanisole, 2-4-6-Trichloroanisole]", "values": [{"measurement": "OR4E2 responded to odorant", "setting": "OR4E2", "value": "▪"}, {"measurement": "OR52B4 responded to odorant", "setting": "OR52B4", "value": "▪"}]}
{"compound": "O=CCCc1ccccc1", "note": "[3-phenyl propyl aldehyde, 3-Phenylpropionaldehyde]", "values": [{"measurement": "OR4K2 responded to odorant", "setting": "OR4K2", "value": "▪"}, {"measurement": "OR4E2 responded to odorant", "setting": "OR4E2", "value": "▪"}]}
{"compound": "CC(=O)O", "note": "[Acetic acid]", "values": [{"measurement": "OR12D2 responded to odorant", "setting": "OR12D2", "value": "▪"}]}
{"compound": "CO[C@]1(C)CC[C@@]23C[C@@H]1C(C)(C)[C@@H]2CC[C@H]3C", "note": "[Cedramber]", "values": [{"measurement": "OR4K5 responded to odorant", "setting": "OR4K5", "value": "▪"}]}
{"compound": "CC1CCCC2(C)CCCCC12O", "note": "(stereo not shown) [Geosmin]", "values": [{"measurement": "OR52B4 responded to odorant", "setting": "OR52B4", "value": "▪"}]}
{"compound": "CC(C)=CCC/C(C)=C/CO", "note": "[Graniol, Geraniol]", "values": [{"measurement": "OR4E2 responded to odorant", "setting": "OR4E2", "value": "▪"}]}
{"compound": "CC(C)C=O", "note": "[Isobutyr aldehyde, Isobutyraldehyde]", "values": [{"measurement": "OR4K2 responded to odorant", "setting": "OR4K2", "value": "▪"}]}
{"compound": "CC(C)CC(=O)O", "note": "[Isovaleric acid]", "values": [{"measurement": "OR12D2 responded to odorant", "setting": "OR12D2", "value": "▪"}]}
{"compound": "CCCCCC(=O)O", "note": "[N-Hexanoic acid, NHexanoic acid]", "values": [{"measurement": "OR4P4 responded to odorant", "setting": "OR4P4", "value": "▪"}]}
{"compound": "CCC(=O)O", "note": "[Propionic acid]", "values": [{"measurement": "OR12D2 responded to odorant", "setting": "OR12D2", "value": "▪"}]}
{"compound": "CC/C(=C\\CC1CC=C(C)C1(C)C)CO", "note": "(stereo not shown) [Sandranol]", "values": [{"measurement": "OR52B4 responded to odorant", "setting": "OR52B4", "value": "▪"}]}
{"compound": "Globalide", "values": [{"measurement": "OR4P4 responded to odorant", "setting": "OR4P4", "value": "▪"}, {"measurement": "Response of OR4P4 to odorant, in words", "setting": "OR4P4; single odorants 200 μM", "value": "responded"}]}
